Test results reported in patent US9125947B2, “Phenylethanoic acid, phenylpropanoic acid and phenylpropenoic acid conjugates and prodrugs of hydrocodone, method of making and use thereof” (KemPharm, Inc., priority 2009, dated 2015).

Experiments:
[1] = Water solubility / ability to be dosed in solution (Example 4)
[2] = Chemical stability: hydrolysis in 5% NaHCO3; type: physicochemical; details: 5% NaHCO3, one hour; for initial amount of conjugate hydrolyzed, 5% NaHCO3 ambient: ambient temperature (~20° C.); for initial amount of conjugate hydrolyzed, 5% NaHCO3 100° C.: oil bath at 100° C.
[3] = Intranasal PK in rats, Ibu-HC vs Adipate-HC (Example 3); details: equivalent to 2 mg/kg freebase hydrocodone
[4] = Chemical stability: hydrolysis to hydrocodone in 1 N hydrochloric acid; details: 1 hour; for initial amount of conjugate hydrolyzed, 1N HCl ambient: ambient temperature (~20° C.); for initial amount of conjugate hydrolyzed, 1N HCl 100° C.: oil bath at 100° C.
[5] = Intranasal PK in rats, Ibu-HC vs Hydrocodone BT (Example 6); type: in vivo
Source text: The intranasal profiles of Ibu-HC were compared to the unconjugated drug Hydrocodone•BT by administering to rats intranasally and measuring the plasma concentration of hydrocodone or hydromorphone over time.

[6] = Oral PK in rats, Ibu-HC and Cinnamate-HC vs Hydrocodone BT (Example 5)

Structure (SMILES) | water solubility [1] | initial amount of conjugate hydrolyzed, 5% NaHCO3 ambient [2] [%] | initial amount of conjugate hydrolyzed, 5% NaHCO3 100° C. [2] [%] | initial amount of conjugate hydrolyzed, 1N HCl ambient [4] [%] | initial amount of conjugate hydrolyzed, 1N HCl 100° C. [4] [%] | other results
COc1ccc2c3c1OC1C(OC(=O)CCCCC(=O)O)=CC[C@H]4[C@@H](C2)N(C)CC[C@]314 (stereo partly shown) [Adipate-HC, reference compound] | water-soluble | 3 | 100 | 13 | 100 | hydromorphone AUC, higher than Ibu-HC ([3]; hydromorphone in plasma, relative to Ibu-HC): approximately 940%; hydrocodone AUC, higher than Ibu-HC ([3]; released hydrocodone in plasma, relative to Ibu-HC): approximately 170%
COc1ccc2c3c1OC1C(OC(=O)COCC(=O)O)=CC[C@H]4[C@@H](C2)N(C)CC[C@]314 (stereo partly shown) [Diglycolate-HC] | water-soluble | – | – | – | – | –
COc1ccc2c3c1O[C@H]1C(=O)CC[C@H]4[C@@H](C2)N(C)CC[C@]314.O=C(O)C(O)C(O)C(=O)O [Hydrocodone•BT, hydrocodone bitartrate, reference compound] | – | – | – | – | – | hydrocodone AUC, higher than Ibu-HC ([5]; hydrocodone in plasma, relative to Ibu-HC): approximately 300%
COc1ccc2c3c1OC1C(OC(=O)C(C)c4ccc(CC(C)C)cc4)=CCC4C(C2)N(C)CCC314 (stereo not shown) [Ibu-HC, ibuprofen-hydrocodone] | very low water solubility | 0 | 22 | – | – | hydrocodone plasma concentrations compared with Adipate-HC [3]: significantly lower; plasma concentration of hydromorphone compared with Adipate-HC [3]: very low; hydrocodone plasma concentrations compared with Hydrocodone•BT [5]: significantly lower; plasma concentration of hydromorphone compared with Hydrocodone•BT [5]: very low; hydrocodone and hydromorphone plasma concentrations compared with unconjugated Hydrocodone•BT ([6]; equivalent to 2 mg/kg freebase hydrocodone): similar; AUC and Cmax values (hydrocodone and hydromorphone) compared with Hydrocodone•BT ([6]; same dose based on hydrocodone freebase (2 mg/kg)): within the range of bioequivalence
COc1ccc2cc(C(C)C(=O)OC3=CCC4C5Cc6ccc(OC)c7c6C4(CCN5C)C3O7)ccc2c1 (stereo not shown) [Naproxen-HC, naproxen-hydrocodone] | – | 0 | 8 | 0 | 33 | –
